Laboratory results taken from patent publication US20140171357A1, “VANCOMYCIN DERIVATIVES” (Seachald Pharmaceuticals, Inc., priority 2011, published 2014).
≈ marks a conversion by molar mass, not a printed value.

How the values were obtained:
[1] = system: heterogeneous VISA (hVISA, 10); assay: MIC broth microdilution, hVISA
[2] = system: β-hemolytic streptococci (23); assay: MIC broth microdilution, β-hemolytic streptococci; details: β-hemolytic streptococci (23); MHB + lysed horse blood
S. aureus ATCC 25923 = assay: Neutropenic murine thigh infection model; details: for AUCc-t (AUC difference between control and treated animals): 24 h time kill
[3] = system: vancomycin-intermediate S. aureus (VISA, 5); assay: MIC broth microdilution, VISA
[4] = system: vancomycin-susceptible E. faecalis (23); assay: MIC broth microdilution, vancomycin-susceptible E. faecalis; details: E. faecalis, vancomycin-susceptible (23)
[5] = system: Staphylococcus aureus (65 strains); assay: MIC broth microdilution, S. aureus all isolates; details: S. aureus (65), all resistance subsets
S. pneumoniae (22) = assay: MIC broth microdilution, S. pneumoniae; details: S. pneumoniae (22); MHB + lysed horse blood
[6] = system: Staphylococcus epidermidis (43 strains); assay: MIC broth microdilution, S. epidermidis; details: S. epidermidis (43)
[7] = system: VanA vancomycin-resistant E. faecium (10); assay: MIC broth microdilution, VanA E. faecium; details: E. faecium, VanA (10)
[8] = system: methicillin-susceptible S. aureus (MSSA, 22); assay: MIC broth microdilution, MSSA; details: MSSA (22)
VanC enterococci (22) = assay: MIC broth microdilution, vanC-carrying enterococci; details: VanC enterococci (22)
[9] = system: methicillin-resistant S. aureus (MRSA, 22); assay: MIC broth microdilution, MRSA; details: MRSA (22)
[10] = system: vancomycin-resistant S. aureus (VRSA, 6); assay: MIC broth microdilution, VRSA
[11] = system: VanB vancomycin-resistant E. faecium (10); assay: MIC broth microdilution, VanB E. faecium; details: E. faecium, VanB (10)
[12] = system: VanB vancomycin-resistant E. faecalis (12); assay: MIC broth microdilution, VanB E. faecalis; details: E. faecalis, VanB (12)
[13] = system: vancomycin-susceptible E. faecium (21); assay: MIC broth microdilution, vancomycin-susceptible E. faecium; details: E. faecium, vancomycin-susceptible (21)
[14] = system: VanA vancomycin-resistant E. faecalis (11); assay: MIC broth microdilution, VanA E. faecalis; details: E. faecalis, VanA (11)
[15] = 1 mg/kg single intraperitoneal dose
[16] = 4 mg/kg single intraperitoneal dose
[17] = 16 mg/kg single intraperitoneal dose

SMILES	MIC 50% [1]	MIC 90% [1]	MIC 50% [2]	MIC 90% [2]	Max Kill (maximum decrease from initial infection level) (S. aureus ATCC 25923; [15])	AUCc-t (AUC difference between control and treated animals) (S. aureus ATCC 25923; [15])	Max Kill (maximum decrease from initial infection level) (S. aureus ATCC 25923; [16])	AUCc-t (AUC difference between control and treated animals) (S. aureus ATCC 25923; [16])	Max Kill (maximum decrease from initial infection level) (S. aureus ATCC 25923; [17])	AUCc-t (AUC difference between control and treated animals) (S. aureus ATCC 25923; [17])	MIC 50% [3]	MIC 50% [4]	MIC 90% [4]	MIC 50% [5]	MIC 90% [5]	MIC 50% (S. pneumoniae (22))	MIC 90% (S. pneumoniae (22))	MIC 50% [6]	MIC 90% [6]	MIC 50% [7]	also measured
CNC(CC(C)C)C(=O)NC1C(=O)NC(CC(N)=O)C(=O)NC2C(=O)NC3C(=O)NC(C(=O)NC(C(=O)O)c4cc(O)c(CNCCOCCOCC[N+](C)(C)C)c(O)c4-c4cc3ccc4O)C(O)c3ccc(c(Cl)c3)Oc3cc2cc(c3OC2OC(CO)C(O)C(O)C2OC2CC(C)(NCc3ccc(-c4ccc(Cl)cc4)cc3)C(O)C(C)O2)Oc2ccc(cc2Cl)C1O (stereo not drawn) [Compound 13]	0.12 µg/mL	0.12 µg/mL	0.06 µg/mL	0.06 µg/mL	0.9 Log10 CFU/thigh	12.6 (Log10 CFU/thigh)/hr	0.28 Log10 CFU/thigh	20.6 (Log10 CFU/thigh)/hr	0.02 Log10 CFU/thigh	29.5 (Log10 CFU/thigh)/hr	0.5 µg/mL	0.25 µg/mL	0.25 µg/mL	0.12 µg/mL	0.5 µg/mL	0.06 µg/mL	0.12 µg/mL	0.12 µg/mL	0.12 µg/mL	2 µg/mL	MIC 90% [7]: 4 µg/mL; MIC 50% [8]: 0.12 µg/mL; MIC 90% [8]: 0.25 µg/mL; MIC 50% (VanC enterococci (22)): 0.25 µg/mL; MIC 90% (VanC enterococci (22)): 1 µg/mL; MIC 50% [9]: 0.12 µg/mL; MIC 90% [9]: 0.12 µg/mL; MIC 50% [10]: 8 µg/mL; MIC 50% [11]: 0.12 µg/mL; MIC 90% [11]: 0.12 µg/mL; MIC 50% [12]: 0.25 µg/mL; MIC 90% [12]: 0.5 µg/mL; MIC 50% [13]: 0.12 µg/mL; MIC 90% [13]: 0.12 µg/mL; MIC 50% [14]: 8 µg/mL; MIC 90% [14]: 16 µg/mL
CNC(CC(C)C)C(=O)NC1C(=O)NC(CC(N)=O)C(=O)NC2C(=O)NC3C(=O)NC(C(=O)NC(C(=O)O)c4cc(O)c(CNCCOCCOCCOCCN(C)C)c(O)c4-c4cc3ccc4O)C(O)c3ccc(c(Cl)c3)Oc3cc2cc(c3OC2OC(CO)C(O)C(O)C2OC2CC(C)(NCc3ccc(-c4ccc(Cl)cc4)cc3)C(O)C(C)O2)Oc2ccc(cc2Cl)C1O (stereo not drawn) [Compound 14]	0.12 µg/mL (≈ 0.0638 µM)	0.12 µg/mL (≈ 0.0638 µM)	0.06 µg/mL	0.06 µg/mL	0.83 Log10 CFU/thigh	11.4 (Log10 CFU/thigh)/hr	0.19 Log10 CFU/thigh	19.4 (Log10 CFU/thigh)/hr	0.03 Log10 CFU/thigh	36.1 (Log10 CFU/thigh)/hr	0.5 µg/mL (≈ 0.266 µM)	0.25 µg/mL (≈ 0.133 µM)	0.25 µg/mL (≈ 0.133 µM)	0.12 µg/mL (≈ 0.0638 µM)	0.5 µg/mL (≈ 0.266 µM)	0.06 µg/mL	0.12 µg/mL	0.12 µg/mL (≈ 0.0638 µM)	0.12 µg/mL (≈ 0.0638 µM)	2 µg/mL (≈ 1.06 µM)	MIC 90% [7]: 4 µg/mL (≈ 2.13 µM); MIC 50% [8]: 0.12 µg/mL (≈ 0.0638 µM); MIC 90% [8]: 0.25 µg/mL (≈ 0.133 µM); MIC 50% (VanC enterococci (22)): 0.25 µg/mL (≈ 0.133 µM); MIC 90% (VanC enterococci (22)): 0.5 µg/mL (≈ 0.266 µM); MIC 50% [9]: 0.12 µg/mL (≈ 0.0638 µM); MIC 90% [9]: 0.12 µg/mL (≈ 0.0638 µM); MIC 50% [10]: 8 µg/mL (≈ 4.25 µM); MIC 50% [11]: 0.12 µg/mL (≈ 0.0638 µM); MIC 90% [11]: 0.12 µg/mL (≈ 0.0638 µM); MIC 50% [12]: 0.25 µg/mL (≈ 0.133 µM); MIC 90% [12]: 0.25 µg/mL (≈ 0.133 µM); MIC 50% [13]: 0.12 µg/mL (≈ 0.0638 µM); MIC 90% [13]: 0.12 µg/mL (≈ 0.0638 µM); MIC 50% [14]: 8 µg/mL (≈ 4.25 µM); MIC 90% [14]: 16 µg/mL (≈ 8.5 µM)
